Data from patent publication EP4342487A2, “PHARMACEUTICAL COMPOSITION COMPRISING GIP DERIVATIVE OR LONG-ACTING CONJUGATE THEREOF FOR PREVENTING OR TREATING PULMONARY DISEASE” (Hanmi Pharm. Co., Ltd., priority 2021, dated 2022).

Legend:
Format in all cases: cell-based, human
[1] = test system: A549 cell line; assay: Inflammation and EMT in A549 cells treated with TGF-β1 and LPS (qPCR); details: native GIP 10 µM, long-acting GIP derivative 1 or 10 µM
Method: The A549 cell line, a human alveolar epithelial cell, was used to confirm the inflammatory and fibrosis amelioration effect of long-acting GIP derivatives on COPD in vitro. The purpose of this experiment was to determine the effect of alveolar epithelial cells on epithelial mesenchymal transition (EMT), which is known to be important in the pulmonary fibrosis process.
The A549 cell line was cultured in a F-12K medium supplemented with 10% fetal bovine serum (FBS), 100 µg/mL streptomycin, and 100 U/mL penicillin at a temperature of 37 °C and in 5% carbon dioxide conditions. Cell lines were sequentially treated with TGF-β1 and LPS to induce inflammatory responses and EMT. The native GIP was added at the concentration 10 µM, and the long-acting GIP derivative was diluted at a concentration of 1 or 10 µM and added. As the long-acting GIP derivative, the long-acting GIP conjugate (SEQ ID NO: 17) prepared in Example 3 was used.
RNA was isolated from the A549 cell line after the treatment was completed by using the RNeasy Mini Kit (Qiagen, US), and cDNA was synthesized using the iScript™ cDNA Synthesis Kit (Bio-rad, US). Regarding the synthesized cDNA, the expression level of inflammation and EMT-related genes was confirmed by using the QuantStudio 6 Flex Real-Time PCR System (Applied Biosystems, US). Delta Delta Ct method was used, and beta-actin was used as a housekeeping gene. […]

[2] = test system: THP-1 cell line; assay: Anti-inflammatory effect in LPS-induced THP-1 cells, mRNA level (qPCR); details: THP-1, 1 µg/mL LPS; native GIP 10 µM, long-acting GIP derivative 1 or 10 µM; FIG. 2A
Method: To confirm the anti-inflammatory effect of the long-acting GIP derivative on COPD in vitro, a human monocyte/macrophage cell line, THP-1, was used. Macrophages are known to induce the progression of inflammation by secreting cytokines and chemokines at the initial stage of infection and mobilizing other immune cells.
The THP-1 cell line was cultured in a RPMI 1640 medium supplemented with 10% fetal bovine serum (FBS), 100 µg/mL streptomycin, 100 U/mL penicillin, and 0.05 mM β-mercaptoethanol, at a temperature of 37 °C in 5% carbon dioxide conditions. An inflammatory response was induced by adding 1 µg/mL of lipopolysaccharide (LPS) to the cell line, and the effect on the inflammatory response by LPS when treated with native GIP and long-acting GIP derivatives was confirmed at the mRNA level. The native GIP was added at the concentration 10 µM, and the long-acting GIP derivative was diluted at a concentration of 1 or 10 µM and added. As the long-acting GIP derivative, the long-acting GIP conjugate (SEQ ID NO: 17) prepared in Example 3 was used.
RNA was isolated from the THP-1 cell line after the treatment was completed by using the RNeasy Mini Kit (Qiagen, US), and cDNA was synthesized using the iScript™ cDNA Synthesis Kit (Bio-rad, US). […]

[3] = test system: THP-1 cell line; assay: Inflammation-related cytokines in the medium of PMA and LPS-induced THP-1 cells (ELISA); details: THP-1, 150 nm PMA and 0.1 µg/mL LPS, native GIP 1 µM, long-acting GIP derivative 0.1 µM or 1 µM, FIG. 2B
Method: Additionally, in order to measure the concentrations of the inflammation-related cytokines IL-6, IL-12/23 p40, IL-1β, and TNF-α in the medium of the THP-1 cell line, 150 nm of phorbol 12-myristate 13-acetate (PMA) and 0.1 µg/mL of LPS were added thereto to induce an inflammatory reaction, and the cells were treated with the native GIP and the long-acting GIP derivative: the native GIP was used at a concentration of 1 µM and the long-acting GIP derivative was diluted to a concentration of 0.1 µM or 1 µM. As the medium, Human IL-6 ELISA Kit (Abcam, US), Human IL-12/23 p40 ELISA Kit (Abcam, US), Human IL-1beta ELISA Kit (Abcam, US), and Human TNF alpha ELISA Kit (Abcam, US)were used for quantification.

Substance: native GIP: hormone composed of 42 amino acids secreted from the K cells of the small intestine (YAEGTFISDYSIAMDKIHQQDFVNWLLAQKGKKNDWKHNITQ; Gastric inhibitory polypeptide; UniProt P09681 52-93, looked up)
- relative expression levels of inflammation-related genes IL-6, IL-12, and TNF-α ([1]; FIG. 3A): significantly decreased
- relative expression levels of EMT marker fibronectin, Col1α1, and Col3α1 ([1]; FIG. 3B): decreased
- relative expression levels of inflammation-related genes IL-6, IL-12, IL-1β, and TNF-α [2]: decreased
- concentrations of the inflammation-related cytokines IL-6, IL-12/23 p40, IL-1β, and TNF-α in the medium [3]: decreased
